The assay relates to HCV replicon (Huh-7 luc/neo cells, NS3-NS5B regions of HCV type 1b). Briefly: HCV replicon assay (Huh-Luc cells, luciferase read-out). The class given is cell-based. Particulars: Hepatitis C virus, Huh-7, 72 h, three days incubation, luciferase activity, read-out: average EC50 value in the HCV replicon test. From the text: The in vitro antiviral activity against HCV of the compound of formula I or of formula II can be tested in a cellular HCV replicon system based on Lohmann et al. (1999) Science 285:110-113, with the further modifications described by Krieger et al. (2001) Journal of Virology 75: 4614-4624 (incorporated herein by reference), which is further exemplified in the examples section. This model, while not a complete infection model for HCV, is widely accepted as the most robust and efficient model of autonomous HCV RNA replication currently available. The in vitro antiviral activity against HCV can also be tested by enzymatic tests.
The compounds of formula I were examined for activity in the inhibition of HCV RNA replication in a cellular assay. […] The cellular assay was based on a bicistronic expression construct, as described by Lohmann et al. (1999) Science vol. […]
The replicon cells were plated in 384 well plates in the presence of the test and control compounds which were added in various concentrations. Following an incubation of three days, HCV replication was measured by assaying luciferase activity (using standard luciferase assay substrates and reagents, and a Perkin Elmer ViewLux™ ultraHTS microplate imager). […] The inhibitory activity of the compound was monitored on the Huh-Luc cells, enabling a dose-response curve for each test compound. […]
A general note: Replicon systems follow genome replication, usually without infectious particles.

The structures appear in SMILES notation.

What is called EC50 is the concentration needed to bring the measured effect to its halfway point.

For `COc1ccc2c(O[C@@H]3C[C@H]4C(=O)N[C@]5(C(=O)NS(=O)(=O)C6CC6)C[C@H]5C=CCCCCN(C)C(=O)[C@@H]4C3)cc(-c3nc(C(C)C)cs3)nc2c1C` (stereo in doubt) [compound I, (1R,4R,6S,15R,17R)-cis-N-[17-[2-(4-isopropylthiazole-2-yl)-7-methoxy-8-methyl-quinolin-4-yloxy]-13-methyl-2,14-dioxo-3,13-diazatricyclo[13.3.0.0^4,6]octadec-7-ene-4-carbonyl](cyclopropyl)sulfonamide], the EC50 was 0.008 µM. Then `C[C@@H]1[C@H](n2ccc(N)nc2=O)O[C@@](CO)(N=[N+]=[N-])[C@H]1O` [compound II, 4-amino-1-((2R,3 S,4S,5R)-5-azido-4-hydroxy-5-hydroxymethyl-3-methyltetrahydro-furan-2-yl)-1H-pyrimidin-2-one], with 5 µM.

The values are drawn from patent US20110171174A1, “Synergistic Combinations of a Macrocyclic Inhibitor of HCV and a Nucleoside” (ORTHO-MCNEIL-JANSSEN PHARMACEUTICALS, INC., priority 2008, published 2011).
